Values quoted from earlier work as cited in patent US20210330900A1, “TARGETED ADMINISTRATION TO THE OROPHARYNX OF VISCOUS OR DRY POWDER FLUTICASONE PROPIONATE AND RELATED CORTICOSTEROIDS FOR THE TREATMENT OF EOSINOPHILIC ESOPHAGITIS (EoE)” (Topical Sinus Therapeutics, Inc., priority 2020, published 2021).

- gastrointestinal absorption (compared with other corticosteroids): exceptionally low
- drug inactivated by 1st pass hepatic metabolism (into a single inactive metabolite, after gastrointestinal absorption): 99%
SMILES: C[C@@H]1C[C@H]2[C@@H]3C[C@H](F)C4=CC(=O)C=C[C@]4(C)[C@@]3(F)[C@@H](O)C[C@]2(C)[C@@]1(O)C(=O)SCF [Fluticasone]
